Measured values as given in US20220242874A1, “CAMPTOTHECIN DERIVATIVES” (SUN PHARMA ADVANCED RESEARCH COMPANY LIMITED, priority 2019, published 2022).
Where a name gives a salt, the structure may show the parent alone. Read-outs that look alike come from different tables or passages of the source.

Tests used:
[1] = mouse, 2000 ng/mL, pH 5.5
Experimental: Aliquot of 100 μL were taken from stability samples in pre-labelled micro-centrifuge tubes. 5 μL of cetirizine working internal standard (5 μg/mL) was added to each tube and vortexed well. 1 mL acetonitrile was added to each tube and vortexed well and then centrifuge at 10000 RPM for 5 min at room temperature. The supernatant was collected in ria vials and evaporated to dryness under nitrogen stream. The samples were reconstituted in 1 mL of 0.1% formic acid in water: acetonitrile 30:70 v/v. The prepared samples were analyzed using LC-MS/MS method. Quantification was done against SN-38 standard, prepared at 2000 ng/mL concentration. SN-38 standard prepared by spiking 5 μL of SN-38 working standard to 95 μL of blank mice tumor homogenate to achieve 2000 ng/mL concentration and vortexed well and processed as described.
LC-MS/MS Method: Chromatographic separation was achieved on Inertsil C8-3 (50×4.6 mm, 5 μ) with a flow rate of 250 μL/min and an injection volume of 10 μL. The sample cooler was maintained at 10° C. The column oven temperature was set to 40° C. The mobile phase consisted of 0.1% formic acid in Milli Q water and acetonitrile in the ratio of 30:70 v/v, respectively. […] The overall chromatographic run time was 4.0 minutes.
Detection was performed by tandem mass spectrometry (TSQ Quantum, Discovery MAX, Thermo Electron Corporation) and peak areas were integrated using LCquan software version 2.9 QF1.
0 hr standard area was considered as 100% for calculation.

[2] = Buffer stability (phosphate buffer, 37° C., HPLC); assay type: physicochemical
Experimental: The representative compounds were first dissolved in a minimum quantity of DMSO in a volumetric flask and diluted up to the mark with diluent (water: acetonitrile 30:70). […] After the elapsed time, the buffer samples were diluted 4 times with acetonitrile and injected into an HPLC system. Quantification of representative compounds was done by HPLC.
HPLC method: Chromatographic separation was achieved on a Hypersil BDS C18 (100×4.6 mm, 5 μ) column using 25 mM KH2PO4 buffer (pH 7 with TEA): acetonitrile, 90:10 v/v as mobile phase-A and 25 mM KH2PO4 buffer (pH 7 with TEA): acetonitrile 30:70 v/v as mobile phase-B. The gradient started with initially 5% B to 45% B in 10 mins followed by 80% B in 22 mins and held up to 25 mins and then returned to initial conditions at 26 mins and continued up to 30 mins. The injection volume was kept 10 μL and the flow rate was kept at 1.0 mL/min. The UV-Vis Detector was set at 220 nm, the column oven was set at 37° C. and the sample cooler was set at […]. Total chromatographic runtime was 30 min.

NCI H187 cells = assay: In-vitro cancer cell growth inhibition assay (MTT); assay type: cell-based; details: Homo sapiens, NCI-H187, read-out: IC50 (nM) NCI H187
Experimental: The compounds of the present invention were evaluated for their ability to inhibit the growth of various cell line models of small cell lung cancer (SCLC), colon cancer, pancreatic cancer and triple negative breast cancer (TNBC) in-vitro. Details of the cell lines and their respective complete growth media are described in Table 3. The growth inhibition assay was carried out as described below. Briefly, cells in complete growth media were seeded in 96-well plates at appropriate cell densities (seeding density details described in Table 3) and incubated at 37° C., 5% CO2 (3-4 hours for NCI-H526, NCI-H69, NCI-H187 and overnight for the rest of the cells). Serial dilutions of test compound in DMSO were added to the cells while maintaining the final DMSO concentration of 0.4%-0.5% in the well. […] Subsequently, MTT (final concentration 0.5 mg/mL in media) was incubated with the cells at 37° C., 5% CO2 for 4-5 hours. The formazan crystals were dissolved overnight at 37° C., 5% CO2 using 100 μL extractant (10% SDS in 0.01N HCl) and quantified using absorbance at 570 nm with reference wavelength 630 nm. Growth inhibition was represented as percent decrease in absorbance compared to vehicle treated cells.

PANC-1 cells = assay: In-vitro cancer cell growth inhibition assay (MTT); assay type: cell-based; details: Homo sapiens, PANC-1, 96 h, read-out: IC50 (nM) PANC-1
Experimental: (§1) The compounds of the present invention were evaluated for their ability to inhibit the growth of various cell line models of small cell lung cancer (SCLC), colon cancer, pancreatic cancer and triple negative breast cancer (TNBC) in-vitro. Details of the cell lines and their respective complete growth media are described in Table 3. The growth inhibition assay was carried out as described below. Briefly, cells in complete growth media were seeded in 96-well plates at appropriate cell densities (seeding density details described in Table 3) and incubated at 37° C., 5% CO2 (3-4 hours for NCI-H526, NCI-H69, NCI-H187 and overnight for the rest of the cells). Serial dilutions of test compound in DMSO were added to the cells while maintaining the final DMSO concentration of 0.4%-0.5% in the well. Plates were incubated for 96-144 h (the exact duration for each assay is described in Table 3) at 37° C., 5% CO2. Subsequently, MTT (final concentration 0.5 mg/mL in media) was incubated with the cells at 37° C., 5% CO2 for 4-5 hours. The formazan crystals were dissolved overnight at 37° C., 5% CO2 using 100 μL extractant (10% SDS in 0.01N HCl) and quantified using absorbance at 570 nm with reference wavelength 630 nm. Growth inhibition was represented as percent decrease in absorbance compared to vehicle treated cells.

MDA-MB-231 cells = assay: In-vitro cancer cell growth inhibition assay (MTT); assay type: cell-based; details: Homo sapiens, MDA-MB-231, 96 h, read-out: IC50 (nM) MDA-MB-231
Experimental: as §1

MX-1 cells = assay: In-vitro cancer cell growth inhibition assay (MTT); assay type: cell-based; details: Homo sapiens, MX1, 144 h, read-out: IC50 (nM) MX-1
Experimental: as §1

MDA-MB-468 cells = assay: In-vitro cancer cell growth inhibition assay (MTT); assay type: cell-based; details: Homo sapiens, MDA-MB-468, 96 h, read-out: IC50 (nM) MDA-MB-468
Experimental: as §1

NCI H69 cells = assay: In-vitro cancer cell growth inhibition assay (MTT); assay type: cell-based; details: Homo sapiens, NCI-H69, 144 h, read-out: IC50 (nM) NCI H69
Experimental: as §1

HT-29 cells = assay: In-vitro cancer cell growth inhibition assay (MTT); assay type: cell-based; details: Homo sapiens, HT-29, 96 h, read-out: IC50 (nM) HT-29
Experimental: as §1

SMILES: CCc1c2c(nc3ccc(OC(=O)N4CCC(N5CCCCC5)CC4)cc13)-c1cc3c(c(=O)n1C2)COC(=O)[C@]3(O)CC [Irinotecan, irinotecan hydrochloride]
- % Remaining in tumor lysate ([1]; 0 h): 100.0%
- Concentration of SN-38 formed from the substance ([1]; 0 h): 0 µg/mL
- % Remaining in tumor lysate ([1]; 1 h): 110.5%
- Concentration of SN-38 formed from the substance ([1]; 1 hr): 0.0094 µg/mL
- % Remaining in tumor lysate ([1]; 2 h): 95.4%
- Concentration of SN-38 formed from the substance ([1]; 2 hr): 0.0175 µg/mL
- % Remaining in tumor lysate ([1]; 4 h): 93.1%
- Concentration of SN-38 formed from the substance ([1]; 4 hr): 0.0228 µg/mL
- % Remaining in tumor lysate ([1]; 6 h): 82.3%
- Concentration of SN-38 formed from the substance ([1]; 6 hr): 0.0255 µg/mL
- Concentration of SN-38 formed from the substance ([1]; 8 h): 0.0296 µg/mL

SMILES: CCc1c2c(nc3ccc(O)cc13)-c1cc3c(c(=O)n1C2)COC(=O)[C@@]3(CC)OC(=O)CCCSSCCCC(=O)Nc1ccc(N2CCN(C)CC2)cc1.Cl [Compound I.1, 4-[3-(4-(4-Methylpiperazin-1-yl)phenylcarbamoyl)propyldisulfanyl][(4S)-4,11-diethyl-3,4,12,14-tetrahydro-9-hydroxy-1H-pyrano[3′,4′:6,7]indolizino[1,2-b]quinoline-3,14-(4H,12H)dione-4-yl]butyrate hydrochloride]
- % of Unconverted Compounds of Formula I ([2]; pH 4.7, 0 hr, 200 μg/ml): 100%
- % of Unconverted Compounds of Formula I ([2]; pH 4.7, 2 hr, 200 μg/ml): 96.3%
- % of Unconverted Compounds of Formula I ([2]; pH 4.7, 4 hr, 200 μg/ml): 97.4%
- % of Unconverted Compounds of Formula I ([2]; pH 4.7, 6 hr, 200 μg/ml): 100.0%
- % of Unconverted Compounds of Formula I ([2]; pH 4.7, 8 hr, 200 μg/ml): 100%
- % of Unconverted Compounds of Formula I ([2]; pH 6.0, 0 hr, 200 μg/ml): 100%
- % of Unconverted Compounds of Formula I ([2]; pH 6.0, 2 hr, 200 μg/ml): 95.4%
- % of Unconverted Compounds of Formula I ([2]; pH 6.0, 4 hr, 200 μg/ml): 97.1%
- % of Unconverted Compounds of Formula I ([2]; pH 6.0, 6 hr, 200 μg/ml): 97.2%
- % of Unconverted Compounds of Formula I ([2]; pH 6.0, 8 hr, 200 μg/ml): 97.1%
- % of Unconverted Compounds of Formula I ([2]; pH 7.4, 0 hr, 200 μg/ml): 100%
- % of Unconverted Compounds of Formula I ([2]; pH 7.4, 2 hr, 200 μg/ml): 97.7%
- % of Unconverted Compounds of Formula I ([2]; pH 7.4, 4 hr, 200 μg/ml): 95.5%
- % of Unconverted Compounds of Formula I ([2]; pH 7.4, 6 hr, 200 μg/ml): 100.0%
- % of Unconverted Compounds of Formula I ([2]; pH 7.4, 8 hr, 200 μg/ml): 100%

SMILES: CCc1c2c(nc3ccc(O)cc13)-c1cc3c(c(=O)n1C2)COC(=O)[C@@]3(CC)OC(=O)OCCSSCCNC(=O)c1ccc(CN2CCN(C)CC2)cc1 [Compound I.6, 2-(2-{4-[4-Methylpiperazin-1-ylmethyl]benzoylamino}ethyldisulfanyl)ethyl [(4S)-4,11-diethyl-3,4,12,14-tetrahydro-9-hydroxy-1H-pyrano[3′,4′:6,7]indolizino[1,2-b]quinoline-3,14-(4H,12H)dione-4-yl] carbonate dihydrochloride]
- IC50 (NCI H187 cells): 0.23 nM
- IC50 (PANC-1 cells): 1140 nM
- IC50 (MDA-MB-231 cells): 158 nM
- IC50 (MX-1 cells): 5.4 nM
- IC50 (MDA-MB-468 cells): 13.7 nM
- IC50 (NCI H69 cells): 2.3 nM
- IC50 (HT-29 cells): 15.7 nM
- % of Unconverted Compounds of Formula I ([2]; pH 4.7, 0 hr, 100 μg/ml (footnote *)): 100%
- % of Unconverted Compounds of Formula I ([2]; pH 4.7, 2 hr, 100 μg/ml (footnote *)): 96.8%
- % of Unconverted Compounds of Formula I ([2]; pH 4.7, 4 hr, 100 μg/ml (footnote *)): 89.8%
- % of Unconverted Compounds of Formula I ([2]; pH 4.7, 8 hr, 100 μg/ml (footnote *)): 89.0%
- % of Unconverted Compounds of Formula I ([2]; pH 6.0, 0 hr, 100 μg/ml (footnote *)): 100%
- % of Unconverted Compounds of Formula I ([2]; pH 6.0, 2 hr, 100 μg/ml (footnote *)): 89.9%
- % of Unconverted Compounds of Formula I ([2]; pH 6.0, 4 hr, 100 μg/ml (footnote *)): 89.4%
- % of Unconverted Compounds of Formula I ([2]; pH 6.0, 6 hr, 100 μg/ml (footnote *)): 82.5%
- % of Unconverted Compounds of Formula I ([2]; pH 6.0, 8 hr, 100 μg/ml (footnote *)): 84.3%
- % of Unconverted Compounds of Formula I ([2]; pH 7.4, 0 hr, 100 μg/ml (footnote *)): 100%
- % of Unconverted Compounds of Formula I ([2]; pH 7.4, 2 hr, 100 μg/ml (footnote *)): 90.7%
- % of Unconverted Compounds of Formula I ([2]; pH 7.4, 4 hr, 100 μg/ml (footnote *)): 81.4%
- % of Unconverted Compounds of Formula I ([2]; pH 7.4, 6 hr, 100 μg/ml (footnote *)): 83.7%
- % of Unconverted Compounds of Formula I ([2]; pH 7.4, 8 hr, 100 μg/ml (footnote *)): 84.6%
